# Results published in patent publication US10220069B2, “Compositions and methods for treating diabetes” (THE JOHNS HOPKINS UNIVERSITY, priority 2014, dated 2019).
# Where no end group is shown, it is not given here.
# Assays:
# [1] = target: T1, GPR54 (Mus musculus, UniProt Q91V45); test: GSIS from WT islets exposed to K10 or diabetic mouse serum with K234; format: cell-based
# T1 construct: Mouse brain, mouse islets, insulinoma cells, and human islets express Kiss1R; from tissue; host or cells: isolated mouse pancreatic islets (WT / Kiss1Rfl/fl, C57Bl/6 background)
# T1 sequence (Q91V45 whole entry): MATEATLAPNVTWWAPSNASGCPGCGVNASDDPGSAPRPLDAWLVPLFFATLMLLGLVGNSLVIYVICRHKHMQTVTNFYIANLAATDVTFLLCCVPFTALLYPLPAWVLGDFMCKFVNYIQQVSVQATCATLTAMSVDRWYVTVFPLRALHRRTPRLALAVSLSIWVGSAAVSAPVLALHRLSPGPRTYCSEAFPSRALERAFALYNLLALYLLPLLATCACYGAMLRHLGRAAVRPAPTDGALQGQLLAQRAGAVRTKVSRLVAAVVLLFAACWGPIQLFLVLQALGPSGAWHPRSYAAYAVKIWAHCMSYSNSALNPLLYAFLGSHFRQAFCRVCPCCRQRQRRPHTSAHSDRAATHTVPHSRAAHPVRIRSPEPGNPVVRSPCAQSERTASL
# Excerpt: (§1) Accordingly, based on the above outlined considerations on β-cell dysfunction and hyperglucagonemia, we reasoned that glucagon receptor-mediated signaling in the liver is required to initiate β-cell dysfunction and to impair glucose-stimulated insulin secretion. We therefore inducibly disinhibited cAMP-PKA signaling in vivo in adult mouse liver by ablating hepatic protein kinase A regulatory subunit 1A (prkar1a) by adenovirus mediated hepatic CRE recombinase transduction in floxed prkar1a mice (L-Δprkar1a mice) 14 (FIG. 22A). Upregulation of hepatic cAMP-PKA signaling within 3 days stimulated hepatic gluconeogenesis causing increase in fasting glucose levels and insufficient insulin secretion to correct glycemia. Conversely, identical baseline fasting glycemia achieved in mice by continuous exogenous glucose infusion for 3 days 15 (D-glucose mice) was associated with increased insulin secretion and relatively mild impairment of glucose tolerance despite continued exogenous glucose infusions (FIG. 22B). Differential hepatic gene expression analysis between these two mouse models identified the gene encoding the secreted neuropeptide kisspeptin-1 (Kiss1) to be markedly elevated (8× on mRNA array, 15× on qRT-PCR) in L-Δprkar1a but not in D-glucose mice (FIG. 22C). […] The kisspeptin receptor Gpr54 expression was detected at significant levels in pancreatic islets (FIG. 26). […]
# [2] = target: T1, GPR54; test: Glucose tolerance in db/db diabetic mice treated with K234; format: in vivo
# Excerpt: as §1
# [3] = intravenous bolus, circulating kisspeptin not measured; cited from earlier work
# [4] = tested on: mouse Kiss1 promoter; test: Kiss1 promoter luciferase reporter in H2.35 hepatoma cells; format: cell-based; details: 1 kb mouse Kiss1 promoter
# Protocol: Cell Culture Studies. Mouse primary hepatocytes were isolated and cultured as described (He et al., 2009). H2.35 hepatoma cell line was cultured and transfected as described (He et al., 2009). 1 kb of the 5' untranslated region of the mouse Kiss1 gene were cloned by PCR into pGL4. The CRE half sites ([…]) within the promoter region were mutated by site directed mutagenesis to (TATGT). Luciferase activity was measured in cell lysates using a luminometer (Berthold) after treatment each for 2 hours with forskolin/IBMX (100 μM each) or glucagon (200 pg/ml) or/and insulin (2000 pg/ml). Dominant-negative A-CREB (Ahn et al., 1998) and WT CREB were from Addgene. Constitutively active CREB […] (Du et al., 2000) was generated by site directed mutagenesis of WT CREB. […] The mouse Kiss1 promoter contains two putative functional cAMP response element (CRE) half-sites (TGACT) (Zhang et al., 2005) located at _127 and _758 bp upstream of the Kiss1 transcription start site. Mutation of either of the CRE half-sites decreased the transcriptional responses to glucagon or to fsk/IBMX, and combined mutation of both CRE half-sites further decreased the responses (FIG. 9A).
# [5] = target: T2, Gcgr (Mus musculus, UniProt Q61606); test: Intraperitoneal glucagon: hepatic kisspeptin1 production; format: in vivo
# T2 construct: endogenous in cells; host or cells: live mice (WT, Gcgrfl/fl, HFD-fed C57Bl/6, Lepr db/db); hepatic receptor
# T2 sequence (Q61606 27-485): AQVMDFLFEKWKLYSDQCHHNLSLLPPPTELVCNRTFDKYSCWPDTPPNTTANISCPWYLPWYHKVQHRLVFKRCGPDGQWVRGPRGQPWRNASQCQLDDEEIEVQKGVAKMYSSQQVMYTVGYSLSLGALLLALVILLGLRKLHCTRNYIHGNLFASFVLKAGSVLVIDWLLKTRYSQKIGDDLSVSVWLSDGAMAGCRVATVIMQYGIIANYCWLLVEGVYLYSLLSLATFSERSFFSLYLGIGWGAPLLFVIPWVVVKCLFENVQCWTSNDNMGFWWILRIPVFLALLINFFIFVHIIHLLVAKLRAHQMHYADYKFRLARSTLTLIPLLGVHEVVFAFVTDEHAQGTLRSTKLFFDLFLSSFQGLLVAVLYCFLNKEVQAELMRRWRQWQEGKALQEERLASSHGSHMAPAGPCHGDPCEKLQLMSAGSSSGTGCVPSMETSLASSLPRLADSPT
# Protocol: (§2) Intraperitoneal glucose tolerance (ipGTT) and insulin tolerance (ipITT) tests were performed according to standard protocols (Song et al., 2013; Song et al., 2011). After 9 am-3 pm fasting, animals were administered 20% D-glucose (via ip injection), insulin 0.5 U/kg i.p. […] The glucagon receptor antagonist GAI (N-(3-Cyano-6-(1,1-dimethylpropyl)-4,5,6,7-tetrahydro-1-benzothien-2-yl)-2-ethylbutanamide (Qureshi et al., 2004) and its non-active analogue were administered (50 mg/kg i.p. in DMSO) in HFD fed and Lepr^db/db mice 60 min before i. GTT. Intraperitoneal pyruvate converstion (1 g/kg i.p.) test (ipPCT) in ΔL-Prkar1a mice was performed in the fed state (9 am) to avoid any confounding effects of fasting-induced elevated endogenous glucagon levels. Tail-vein blood was collected at the indicated times in figures for glucose and insulin measurements. Serum insulin was measured using mouse magnetic bead panel (Millipore, Luminex). Plasma for glucagon measurements was drawn from mice in the fed state at 9 am, unless otherwise noted for fasting studies. Plasma glucagon (Alpco) and kisspeptin1 (USCN Life Sciences Inc. E92559Ra) were measured by ELISA according to manufacturer's instructions including dilution of samples.
# (§3) Kiss1 transcript was also detectable by qRT-PCR at low levels in spleen, kidney, skeletal muscle, and epididymal fat tissue.
# [6] = tested on: Gcgr; test: as above; format: in vivo, mouse; details: mice lacking liver Gcgr, ip glucagon
# Protocol: as §2, §3
# [7] = tested on: Kiss1; test: Kiss1 expression in primary mouse hepatocytes; format: cell-based; details: for Kiss1 expression / Pck1 expression: primary mouse hepatocytes, glucagon 200 pg/ml, insulin 2000 pg/ml; for Kiss1 expression: 2 hr
# Protocol: Cell Culture Studies. Mouse primary hepatocytes were isolated and cultured as described (He et al., 2009). H2.35 hepatoma cell line was cultured and transfected as described (He et al., 2009). 1 kb of the 5' untranslated region of the mouse Kiss1 gene were cloned by PCR into pGL4. The CRE half sites (TGCAT) within the promoter region were mutated by site directed mutagenesis to (TATGT). Luciferase activity was measured in cell lysates using a luminometer (Berthold) after treatment each for 2 hours with forskolin/IBMX (100 μM each) or glucagon (200 pg/ml) or/and insulin (2000 pg/ml). Dominant-negative A-CREB (Ahn et al., 1998) and WT CREB were from Addgene. Constitutively active CREB […] (Du et al., 2000) was generated by site directed mutagenesis of WT CREB. Glucagon Stimulates Hepatic Kiss1 Expression Via Gcgr and cAMP-PKA-CREB Signaling. We next examined whether glucagon directly stimulates hepatic kisspeptin1 production. Glucagon treatment (200 pg/ml) of primary mouse hepatocytes stimulated within 2 hr Kiss1 expression and protein (FIGS. 2A-2C).
# [8] = tested on: Kiss1; test: ip insulin in L-Δprkar1a mice: hepatic Kiss1; format: in vivo, mouse; details: 1 IU/kg ip, within 60 min
# Protocol: Consistent with these observations of insulin counterregulation of PKA-mediated Kiss1 stimulation, in vivo ip insulin (1 IU/kg) administration in L-Δprkar1a mice to supplement relatively deficient endogenous serum insulin concentrations and to achieve blood glucose reduction, decreased hepatic Kiss1 mRNA and protein levels within 60 min (FIGS. 8I-8K).
substance,measurement,setting,value
"K234: GPR54 receptor antagonist, Kisspeptin derivative (SEQ ID NOS:36-37; Roseweir et al. 2009)",impaired GSIS of WT islets exposed to diabetic serum,"[1]; 10% serum from L-Δprkar1a, db/db and ob/ob mice, co-incubation with K234",recovered
same,effects of K10 on islets (FIG. 27),"[1]; WT islets, K10 10 nM",counteracts effects of k10
same,glucose tolerance,[2],dramatic improvement in glucose tolerance
"Tyr-Asn-Trp-Asn-Ser-Phe-Gly-Leu-Arg-Phe-NH2 (YNWNSFGLRF-NH2; listed as Homo sapiens) [K10, 10 amino acid C-terminal kisspeptin fragment, GPR54 agonist]",GSIS,[3],stimulate GSIS
glucagon,Kiss1 promoter luciferase reporter activity,[4],transcriptional activation
same,liver Kiss1 transcript and kisspeptin protein in L-ΔInsr mice,[5]; compared to Insrfl/fl mice,dramatically increased
same,hepatic kisspeptin1 production,"[5]; mice, 16 mg/kg ip, 30 min after injection, versus PBS",increased hepatic kisspeptin1 production
same,kisspeptin production in L-ΔGcgr mice,[6],did not change
same,Kiss1 expression,[7],stimulated
same,Pck1 expression,[7],also stimulated
insulin,glucagon stimulated Kiss1 and Pck1 expression,"[7]; mouse hepatocytes, insulin plus glucagon",dampened
same,Kiss1 expression,[7],reduced basal Kiss1 expression
same,Pck1 expression,[7],also reduced Pck1 expression
same,hepatic Kiss1 mRNA and protein levels,[8],decreased
